Laboratory results from patent US11198713B2, “Agents modulating beta-catenin functions and methods thereof” (FOG PHARMACEUTICALS, INC., priority 2017, dated 2021).
pEC50: −log10 of the molar value. In brackets after ≈: the same amount, converted by molar mass. Read-outs that look alike come from different tables or passages of the source. Numbered stars: 1 amine (or outer) side, 2 acyl side, 3 side chain; on linkers, the order of the positions; unused ones are H or OH. Bridge positions count the residues as written; N and C are the ends. Square brackets hold non-standard residues; d marks the D form. Peptide text beside a SMILES is read from it. 3Aminoazetidine3carboxyl = O=C(C1(N[*:1])CN([*:3])C1)[*:2]; dαMeOrn(Me) = CN(CCC[C@@](C)(N[*:1])C(=O)[*:2])[*:3]; dαMeDab(Me) = CN(CC[C@@](C)(N[*:1])C(=O)[*:2])[*:3]; αMeDab(Me) = CN(CC[C@](C)(N[*:1])C(=O)[*:2])[*:3]; X8 = CN(CC=[*:3])CCC[C@](C)(N[*:1])C(=O)[*:2]; X3 = O=C([C@@]1(N[*:1])CCN([*:3])C1)[*:2]; X7 = C[C@](CCCCC=[*:3])(N[*:1])C(=O)[*:2]; X2 = O=C(OCC=CCOC(=O)[*:2])[*:1]

Key:
[1] = target: T1, full-length beta-catenin (Axin site) (Homo sapiens, UniProt P35222); assay: Competition fluorescence polarization assay (Axin site probe); assay type: binding; conditions: competition fluorescence polarization, Table 2; read-out: in vitro FP EC50
T1 construct: 15 nM full-length beta-catenin, 20 nM FITC labeled peptide in buffer
T1 sequence (P35222 1-781): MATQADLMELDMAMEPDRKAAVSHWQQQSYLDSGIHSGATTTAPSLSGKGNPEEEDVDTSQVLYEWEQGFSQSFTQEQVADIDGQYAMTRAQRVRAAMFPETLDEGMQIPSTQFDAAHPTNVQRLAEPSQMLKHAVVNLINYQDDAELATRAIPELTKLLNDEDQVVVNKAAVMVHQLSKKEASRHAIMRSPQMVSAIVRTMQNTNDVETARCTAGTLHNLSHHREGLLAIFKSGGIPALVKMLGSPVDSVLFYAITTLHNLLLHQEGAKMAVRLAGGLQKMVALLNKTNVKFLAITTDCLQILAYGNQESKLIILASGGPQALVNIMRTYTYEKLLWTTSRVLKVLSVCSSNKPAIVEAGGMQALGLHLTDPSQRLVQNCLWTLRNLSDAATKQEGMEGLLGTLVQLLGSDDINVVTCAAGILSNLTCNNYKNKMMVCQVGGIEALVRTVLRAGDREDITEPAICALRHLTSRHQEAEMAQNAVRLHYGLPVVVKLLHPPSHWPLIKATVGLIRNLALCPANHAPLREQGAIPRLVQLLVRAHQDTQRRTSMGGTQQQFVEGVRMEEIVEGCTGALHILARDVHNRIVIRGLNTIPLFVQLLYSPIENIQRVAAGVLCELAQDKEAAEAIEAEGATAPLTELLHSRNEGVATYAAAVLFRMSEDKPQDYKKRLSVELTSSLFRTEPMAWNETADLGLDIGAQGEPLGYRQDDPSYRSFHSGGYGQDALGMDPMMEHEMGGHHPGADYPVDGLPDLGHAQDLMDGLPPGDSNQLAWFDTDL
Outline: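 Competition FP: 15 nM full-length β-catenin pre-incubated 5 min with 20 nM FITC-labelled stapled Axin-site peptide, then titrated peptide added (3-fold series from 5 μM) for 15 min in the dark. Buffer 50 mM Tris pH 8.0, 250 mM NaCl, 2% glycerol, 0.5 mM EDTA; duplicate reads.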

[2] = Solubility in DPBS (A280 of supernatant); assay type: physicochemical; conditions: DPBS
Experimental: Suitable assays for assessing solubility are widely known in the art and can be utilized in accordance with the present disclosure. In some embodiments, in an exemplary protocol, dried peptide was reconstituted in DPBS (DPBS, 1×, cell culture grade, Sigma D8537) in triplicate, vortexed, sonicated and then centrifuged. Absorbance of the supernatant was measured at A280 (Nanodrop 2000) and the concentration was determined using the extinction coefficient for tryptophan. Exemplary solubility data are presented in, e.g., Table 2.

[3] = Table 3 Part A, read-out: Solubility in DPBS

| Structure (SMILES) | pEC50 [1] | solubility ([2]; Table 2, read-out: Solubility) | solubility ([2]; Table 3 Part B, amino-stapled product, read-out: Solubility in DPBS) | solubility [2, 3] | solubility thermodynamic [2, 3] |
| --- | --- | --- | --- | --- | --- |
| CC[C@H](C)[C@@H]1NC(=O)[C@H](Cc2c[nH]cn2)NC(=O)[C@H](C)NC(=O)[C@H](CC(=O)O)NC(=O)[C@H](CC(C)C)NC(=O)[C@H]([C@@H](C)CC)NC(=O)[C@](C)(NC(=O)[C@H](C)NC(C)=O)CCN(C)C(=O)OCC=CCOC(=O)N(C)CC[C@@](C)(C(=O)N[C@@H](CCCNC(=N)N)C(=O)N[C@H](C(=O)N[C@@H](Cc2c[nH]c3ccccc23)C(N)=O)C(C)C)NC1=O [FP0594c, Ac-A-MG-I-L-D-A-H-I-MF-R-V-W-NH2] (Ac-A[dαMeDab(Me)]ILDAHI[αMeDab(Me)]RVW-NH2; linker 2-9 via X2) | 6.30 to 7.00 | 166 µM (≈ 271 µg/mL) | – | 166 µM (≈ 271 µg/mL) | – |
| CC[C@H](C)[C@@H]1NC(=O)[C@H](Cc2c[nH]cn2)NC(=O)[C@H](C)NC(=O)[C@H](CC(=O)O)NC(=O)[C@H](CC(C)C)NC(=O)[C@H]([C@@H](C)CC)NC(=O)C2(NC(=O)[C@H](C)NC(C)=O)CN(C2)C(=O)OCC=CCOC(=O)N2CC[C@](C(=O)N[C@@H](CCCNC(=N)N)C(=O)N[C@H](C(=O)N[C@@H](Cc3c[nH]c4ccccc34)C(N)=O)C(C)C)(C2)NC1=O [FP0616c, Ac-A-MA-I-L-D-A-H-I-MC-R-V-W-NH2] (Ac-A[3Aminoazetidine3carboxyl]ILDAHI[X3]RVW-NH2; linker 2-9 via X2) | > 7.00 | 56 µM (≈ 88.7 µg/mL) | – | 56 µM (≈ 88.7 µg/mL) | – |

Now from value to compound:

| pEC50 [1] | solubility ([2]; Table 2, read-out: Solubility) | solubility ([2]; Table 3 Part B, amino-stapled product, read-out: Solubility in DPBS) | solubility [2, 3] | solubility thermodynamic [2, 3] | Structure (SMILES) |
| --- | --- | --- | --- | --- | --- |
| > 7.00 | 170 µM (≈ 262 µg/mL) | 170 µM (≈ 262 µg/mL) | – | – | CC[C@H](C)[C@@H]1NC(=O)[C@H](Cc2c[nH]cn2)NC(=O)[C@H](C)NC(=O)[C@H](CC(=O)O)NC(=O)[C@H](CC(C)C)NC(=O)[C@H]([C@@H](C)CC)NC(=O)[C@](C)(NC(=O)[C@H](C)NC(C)=O)CCCCC=CCN(C)CCC[C@@](C)(C(=O)N[C@@H](CCCNC(=N)N)C(=O)N[C@H](C(=O)N[C@@H](Cc2c[nH]c3ccccc23)C(N)=O)C(C)C)NC1=O [FP0511a, Ac-A-R6-I-L-D-A-H-I-MH-R-V-W-NH2] (Ac-A[X7]ILDAHI[X8]RVW-NH2; staple 2-9) |
| > 7.00 | 133 µM (≈ 219 µg/mL) | – | 133 µM (≈ 219 µg/mL) | – | CC[C@H](C)[C@@H]1NC(=O)[C@H](Cc2c[nH]cn2)NC(=O)[C@H](C)NC(=O)[C@H](CC(=O)O)NC(=O)[C@H](CC(C)C)NC(=O)[C@H]([C@@H](C)CC)NC(=O)[C@](C)(NC(=O)[C@H](C)NC(C)=O)CCCN(C)C(=O)OCC=CCOC(=O)N(C)CC[C@](C)(C(=O)N[C@@H](CCCNC(=N)N)C(=O)N[C@H](C(=O)N[C@@H](Cc2c[nH]c3ccccc23)C(N)=O)C(C)C)NC1=O [FP0588c, Ac-A-MI-I-L-D-A-H-I-MG-R-V-W-NH2] (Ac-A[dαMeOrn(Me)]ILDAHI[dαMeDab(Me)]RVW-NH2; linker 2-9 via X2) |
| > 7.00 | – | – | – | 91 µM (≈ 147 µg/mL) | CC[C@H](C)[C@@H]1NC(=O)[C@H](Cc2c[nH]cn2)NC(=O)[C@H](C)NC(=O)[C@H](CC(=O)O)NC(=O)[C@H](CC(C)C)NC(=O)[C@H]([C@@H](C)CC)NC(=O)[C@](C)(NC(=O)[C@H](C)NC(C)=O)CCN(C)C(=O)OCC=CCOC(=O)N2CC[C@](C(=O)N[C@@H](CCCNC(=N)N)C(=O)N[C@H](C(=O)N[C@@H](Cc3c[nH]c4ccccc34)C(N)=O)C(C)C)(C2)NC1=O [FP0598c, Ac-A-MG-I-L-D-A-H-I-MC-R-V-W-NH2] (Ac-A[dαMeDab(Me)]ILDAHI[X3]RVW-NH2; linker 2-9 via X2) |
